From ChEMBL document CHEMBL1201862, “PubChem BioAssay data set” (2004) come the findings set out here.

Among the test systems are DU-145; HCT-116; RPMI-8226; SR; MDA-MB-231; A498; SW-620; NCI-H226; OVCAR-3; COLO 205; SK-MEL-2; NCI-H460; SNB-19; Hs-578T; BT-549; HCT-15; SNB-75; TK-10; MCF7; EKVX.
Holding throughout (assay): DTP human tumour cell line panel, 48 h

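These data come from cells grown in 96-well plates and exposed to compound for 48 hours at five concentrations. Abbreviation: GI50, concentration required for 50% inhibition of growth.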 The source made the active and inactive calls. No stated cut-off is given here; in the data, active = GI50 up to about 1.1 µM and inactive = higher.

The GI50 is the concentration at which growth is held to half of that of the control. Turning to `CCN(CC)c1ccc2cc(C(N)=O)c(=N)oc2c1`, the GI50 with DU-145 was 40.9 µM (inactive); in the experiment on HCT-116 it was 35.1 µM (inactive); with RPMI-8226 it was 96.6 µM (inactive); in the experiment with SR, 14.6 µM (inactive); in the experiment on MDA-MB-231, 32.1 µM (inactive); in the experiment on A498, 38.2 µM (inactive). The GI50 with SW-620 was 47.4 µM (inactive); in the experiment with NCI-H226 it was 19.7 µM (inactive); with OVCAR-3, 31.6 µM (inactive); in the experiment on COLO 205, 35.2 µM (inactive); with SK-MEL-2, 21.3 µM (inactive); with NCI-H460 it was 27 µM (inactive). In addition, the GI50 in the experiment on SNB-19 was 42.1 µM (inactive); in the experiment with Hs-578T, 16.3 µM (inactive); in the experiment with BT-549 it was 52.5 µM (inactive); in the experiment on HCT-15, 35 µM; in the experiment with SNB-75, 26.5 µM (inactive).
Consider `CC1CC(=O)Nc2nc3ccccc3n21` (stereo unspecified), for which the GI50 in the experiment on HCT-116, with RPMI-8226, in the experiment on SR, in the experiment with TK-10, in the experiment on MDA-MB-231 and with A498 was > 100 µM (inactive) throughout. In addition, the GI50 in the experiment with SW-620, in the experiment with NCI-H226, with OVCAR-3, in the experiment with COLO 205, with SK-MEL-2 and in the experiment with NCI-H460 was > 100 µM (inactive) in each case. The GI50 in the experiment with MCF7 is > 100 µM (inactive); with SNB-19 it was > 100 µM (inactive); in the experiment with Hs-578T it was > 100 µM (inactive); in the experiment on EKVX, 0.953 µM (active); with BT-549, > 100 µM (inactive); in the experiment with HCT-15, more than 100 µM.
Consider `CCC1(CC)CC(=NNS(=O)(=O)c2ccc(C)cc2)C1`, for which the GI50 with DU-145, in the experiment with HCT-116, with TK-10, in the experiment on MDA-MB-231, in the experiment with A498 and in the experiment with SW-620 was > 100 µM (inactive) each time. In addition, the GI50 with NCI-H226, with OVCAR-3, with COLO 205, in the experiment with SK-MEL-2, in the experiment on NCI-H460 and in the experiment with MCF7 was > 100 µM (inactive) in each case. In addition, the GI50 is > 100 µM (inactive) in the experiment on SNB-19; > 100 µM (inactive) in the experiment on Hs-578T; > 100 µM (inactive) in the experiment with EKVX; > 100 µM (inactive) with BT-549; more than 100 µM with HCT-15; > 100 µM (inactive) with SNB-75.
In the case of `Cc1ccc(C(=O)N/N=C(\N=N\c2cccc([N+](=O)[O-])c2)c2ccc(N(C)C)cc2)cc1`, the GI50 was 16.6 µM (inactive) with DU-145; > 100 µM (inactive) with HCT-116; 61.9 µM (inactive) in the experiment on RPMI-8226; > 100 µM (inactive) in the experiment on TK-10; > 100 µM (inactive) with MDA-MB-231; > 100 µM (inactive) with SW-620. Besides, the GI50 is > 100 µM (inactive) in the experiment with NCI-H226; 34.6 µM (inactive) in the experiment on OVCAR-3; > 100 µM (inactive) in the experiment with COLO 205; > 100 µM (inactive) in the experiment on SK-MEL-2; 57.7 µM (inactive) in the experiment on NCI-H460; > 100 µM (inactive) with MCF7. Further, the GI50 with SNB-19 is 54.5 µM (inactive); with Hs-578T, > 100 µM (inactive); in the experiment on EKVX it was 25.2 µM (inactive); in the experiment on BT-549 it was 47.8 µM (inactive); with HCT-15 it was 50.7 µM.
With `COc1cc2c(c(O)c1O)C(=O)C1CCC(=O)N1C2c1cccc2ccccc12` (stereo unspecified), the GI50 in the experiment on DU-145, with HCT-116, with RPMI-8226, in the experiment with SR, with A498 and with SW-620 was > 50 µM (inactive) each time. For the same compound, the GI50 in the experiment with NCI-H226, in the experiment on OVCAR-3, in the experiment with COLO 205, with SK-MEL-2, in the experiment with NCI-H460 and in the experiment with MCF7 was > 50 µM (inactive) each time. Moreover, the GI50 was > 50 µM (inactive) with SNB-19; > 50 µM (inactive) in the experiment with Hs-578T; > 50 µM (inactive) in the experiment with EKVX; > 50 µM (inactive) in the experiment with BT-549; more than 50 µM with HCT-15; > 50 µM (inactive) in the experiment with SNB-75.
Turning to `CCCCCCCCCCCCC(O)C(=O)O` (stereo unspecified), the GI50 in the experiment on DU-145, with HCT-116, with RPMI-8226, in the experiment with TK-10, in the experiment with MDA-MB-231 and in the experiment with A498 was > 100 µM (inactive) in each case. Besides, the GI50 with SW-620, with OVCAR-3, with COLO 205, in the experiment with SK-MEL-2, in the experiment with NCI-H460 and in the experiment with MCF7 was > 100 µM (inactive) each time. The GI50 was > 100 µM (inactive) in the experiment on SNB-19; > 100 µM (inactive) in the experiment on Hs-578T; > 100 µM (inactive) in the experiment with BT-549; more than 100 µM in the experiment with HCT-15; > 100 µM (inactive) in the experiment with SNB-75.
Regarding `CCOC(=O)C1C=C1C(C)(C)O` (stereo unspecified), the GI50 in the experiment on DU-145, with RPMI-8226, with SR, in the experiment with TK-10, with A498 and with SW-620 was > 10 µM (inactive) throughout. The GI50 with NCI-H226, in the experiment on OVCAR-3, in the experiment on SK-MEL-2, with NCI-H460, in the experiment on MCF7 and in the experiment on SNB-19 was > 10 µM (inactive) in each case. For the same compound, the GI50 with Hs-578T was > 10 µM (inactive); in the experiment on EKVX, > 10 µM (inactive); with BT-549, > 10 µM (inactive); in the experiment with HCT-15, more than 10 µM; in the experiment on SNB-75, > 10 µM (inactive).
For `C=C1C(=O)C=C2C=C3C(=O)C(C)(C)C[C@]3(O)C12C` (stereo partly specified), the GI50 was 18.8 µM (inactive) with DU-145; 3.97 µM (inactive) with HCT-116; 1.21 µM (inactive) with RPMI-8226; 0.452 µM (active) in the experiment on SR; 1.84 µM (inactive) in the experiment with TK-10; 2.36 µM (inactive) in the experiment with MDA-MB-231. The GI50 in the experiment with A498 was 12.8 µM (inactive); with SW-620 it was 0.968 µM (active); in the experiment on NCI-H226, 22.1 µM (inactive); in the experiment with OVCAR-3, 1.8 µM (inactive); in the experiment with COLO 205, 1.5 µM (inactive); in the experiment on SK-MEL-2, 17.8 µM (inactive). The GI50 in the experiment with NCI-H460 is 18.9 µM (inactive); with SNB-19, 29.5 µM (inactive); in the experiment on Hs-578T it was 8.22 µM (inactive); in the experiment with EKVX it was 16.1 µM (inactive); with BT-549, 1.54 µM (inactive); in the experiment with HCT-15, 2.25 µM. Besides, the GI50 in the experiment on SNB-75 is 14.2 µM (inactive).
